# Test results from patent US20210015793A1, “COMPOUNDS FOR TREATING CNS- AND NEURODEGENERATIVE DISEASES” (ETH ZURICH, priority 2018, published 2021).
# Columns and labels:
# [1] = tested on: rats subjected to the CUMS protocol; assay: Immunoblot detection of hippocampal PHF-Tau (AT8) in aged rats subjected to CUMS; assay type: in vivo, rat; details: 16 months-old rats, CUMS for 4 weeks, oral treatment 8 mg/kg/d
# Method: As a model for reproducing major features of sporadic AD and depression, 15 months-old male rats were […] according to the CUMS protocol for 4 weeks. The following stimuli were administered each week in a random order: two periods (7 h and 17 h) of 45° cage tilt; soaked cage for 17 h; food deprivation (24 h) and water deprivation (12 h), twice a week; paired housing (17 h); overnight illumination during the dark phase, twice a week; noise (85 dB) in the room for 5 h, twice a week; flashing light (60 flashes/min) for 6 h, three times a week (AbdAlla et al., Biomed. Res. Int. 2015:917156 (2015); El-faramawy et al., Pharmacol. Biochem. Behav. 91, 339-344 (2009)). The sucrose preference test (2% sucrose in water) was done immediately after a period of food and water deprivation. […]
# For immunoblot detection of PHF-Tau in the hippocampus of aged 16 month-old rats subjected to the CUMS protocol for 4 weeks, hippocampi were dissected out from isolated brains on ice, pulverized under liquid nitrogen, and proteins were extracted with guanidine-hydrochloride (6.25 M guanidine hydrochloride in 50 mM Tris, pH 8.0 supplemented with 1× protease inhibitors and 1× phosphatase inhibitors) for 30 min at 4° C. […] For quantitative analysis, quantitative immunoblot evaluation was performed. To control for equal protein loading, the total content of hippocampal Gnb was determined. […]
# Tg-TauP301L mice = assay: Hippocampal PHF Tau hyperphosphorylation (AT8) in Tg-TauP301L model of tauopathy; assay type: in vivo, mouse; details: 12 months-old Tg-TauP301L mice treated for 6 months
# Text: For a genetic model of familial AD (FAD), Tg2576 mice (Taconic Biosciences, Rensselaer, N.Y., USA) were used with neuron-specific overexpression of human APPSwe, i.e the Swedish mutation of APP695 isolated from a Swedish family with FAD featuring the double mutation K670N/M671L (Hsiao et al., Science 274, 99-103 (1996)). As a genetic model of tauopathy, the Tg-TauP301L mice (Model 2508, Taconic Biosciences, Rensselaer, N.Y., USA) with neuron-specific expression of the most common FTDP-17 (frontotemporal dementia and parkinsonism linked to chromosome 17) mutation (Lewis et al., Nature Genetics 25, 402-405 (2000)) were used. To enhance neurodegeneration and neuronal loss, the CUMS (chronic unpredictable mild stress) protocol was performed with male 12 months-old Tg2576 mice for 3 months essentially as described (AbdAlla et al., J. Biol. Chem. 284, 6554-6565 (2009); AbdAlla et al., J. Biol. Chem. 284, 6566-6574 (2009)). […]
# Similarly, hyperphosphorylated Tau was detected with AT8 antibody on paraffin-embedded brain sections from 12 months-old Tg-TauP301L mice (Model 2508, Taconic Biosciences, Rensselaer, N.Y., USA) without and with treatment with Compound-1 and Compound-4 for 6 months. […]
compound,measurement,setting,value
"O=C(C1=C(O)C(c2ccccc2)N(c2ccc3c(c2)OCO3)C1=O)C1CC1 (stereo not drawn) [Compound-1, 1-(1,3-benzodioxol-5-yl)-4-(cyclopropane-carbonyl)-3-hydroxy-2-phenyl-2H-pyrrol-5-one]",hippocampal PHF Tau hyperphosphorylation (immunoblot AT8),[1],retard PHF Tau hyperphosphorylation
same,"hippocampal content of hyperphosphorylated PHF-Tau (quantitative, [125I]-AT8 binding)",Tg-TauP301L mice,significantly decreased hippocampal content of hyperphosphorylated PHF-Tau
same,PHF Tau hyperphosphorylation in hippocampal CA3 area (immunohistology),Tg-TauP301L mice; 8 mg/kg/d in drinking water,largely absent
